Reference: patent US20250228865A1, “COMPOUNDS FOR ENHANCING READ THROUGH OF GENES CONTAINING PREMATURE TERMINATION CODONS AND METHODS FOR MAKING AND USING THE SAME” (Sanofi US Services Inc., priority 2022, published 2025)

Key:
[1] = system: recombinant human CFTR carrying the premature stop codon (PTC) mutation R1162X; experiment: CFTR-PTC mutant translation readthrough, Nanoluc tagged CFTR luminescence (R1162X cell line); format: cell-based; details: for CFTR R1162X ACTIVITY Fold 10 μM G-418: fold over 10 μM G-418, in combination with G418; for EC50: in combination with G418, 16HBE cells, read-out: CFTR R1162X ACTIVITY EC50
Experimental: (§1) 16HBE human bronchial epithelial cells (stably over-expressing recombinant human CFTR carrying the premature stop codon (PTC) mutation G542X or R1162X along with a Nanoluc tag incorporated into the CFTR channel within extracellular loop 4 in G542X cell line or C-terminus end in the R1162X cell line were seeded at 0.01×10^6 cells/well and grown in Minimal Essential Medium (MEM) as monolayers in 384 well plates and incubated at 37° C. with 5% CO2. Media was changed every other day until day of experiment. Agents to be evaluated were made up in separate 384 well, polypropylene plates at a 2X the final desired test concentration. Test agent 10-point concentration response curves were constructed using the Labcyte Echo 555 acoustic dispenser. Test agents were typically tested at a max final test concentrations of 50 μM with sequential 2-fold lower concentrations below this in the absence or presence of a fixed 10 μM concentration of the aminoglycoside G418 made up in MEM growth media (reduced Serum Media+HEPES Buffer+2.4 g/L Sodium Bicarbonate+L-Glutamine containing CFTR corrector VX-809 (3 μM)). Treatment with 10 μM G418 alone produced approximately 10% of the response observed with a maximally effective concentration of G418 (typically 125-250 μM). Test agent effects in presence of 10 μM G418 were compared to control wells on the plate containing a maximally effective concentration of G418 (typically 125-250 μM) made up in the same media. 25 ul of test agents/control solutions were transferred from the compound plate to the cell plate, which already contained 25 ul/well of cell plating media, using an Integra Viaflo 384. Cell plates were incubated with the compounds for 48 hours, at which time they were processed using Nanoluc luminescence Kit (Promega Nano-Glo Live Cell Assay System) to measure CFTR-PTC mutant translation readthrough. Luminescence was measured as follows. Cell plates were removed from the incubator and allowed to equilibrate to room temperature for 20 minutes. Media was removed from all wells and the plates were blotted to remove excess remaining volume. Nano-Glo Live Cell Substrate was diluted 1:20 in the appropriate amount of Nano-Glo LCS Dilution Buffer to accommodate the number of cell plates being tested. The substrate/dilution buffer mix was then diluted 1:3 with MEM media to make the appropriate volume for the number of plates being tested. The substrate/dilution buffer/OptiMEM mix was added across the Nanoluc testing cell plates and the plates were read for luminescence signal immediately. Test agent effects on CFTR translation readthrough was determined by normalizing any observed increase in luminescence induced by 48 hours pretreatment with test compound to the magnitude of luminescence increase produced by pretreatment with a maximally effective concentration of the reference readthrough enhancing agent G418 (125-250 μM).

[2] = system: recombinant human CFTR carrying the premature stop codon (PTC) mutation G542X; experiment: CFTR-PTC mutant translation readthrough, Nanoluc tagged CFTR luminescence (G542X cell line); format: cell-based; details: in combination with G418, G542X cell line; for CFTR G542X ACTIVITY Fold 10 μM G-418: fold over 10 μM G-418; for EC50: 16HBE cells
Experimental: as §1

| EC50 [1] | EC50 [2] | Structure (SMILES) | CFTR R1162X ACTIVITY Fold 10 μM G-418 [1] | CFTR G542X ACTIVITY Fold 10 μM G-418 [2] |
| --- | --- | --- | --- | --- |
| 1 to 10 µM | 1 to 10 µM | O=C(CO)N1CCN(c2ncc(OCc3c(Cl)cccc3Cl)cn2)CC1 | A′ (A′ = ≥10X) | A′ (A′ = ≥10X) |
| 1 to 10 µM | 1 to 10 µM | Cc1cccc(C(F)(F)F)c1COc1ccc(-n2cnc(C(=O)O)n2)cc1 | A′ (A′ = ≥10X) | A′ (A′ = ≥10X) |
| > 10 µM | > 10 µM | Cc1cccc(C(F)(F)F)c1COc1cnc(N2C(=O)CN(C)C2=O)nc1 | C′ (C′ = <5X) | B′ (B′ = ≥5X to <10X) |
| < 1 µM | < 1 µM | OCCOCCN1CCN(c2ncc(OCc3c(Cl)cccc3Cl)cn2)CC1 | A′ (A′ = ≥10X) | A′ (A′ = ≥10X) |
| > 10 µM | > 10 µM | COc1cccc(Cl)c1COc1ccc(N2CC(CO)OC2=O)cc1 (stereo not shown) | C′ (C′ = <5X) | C′ (C′ = <5X) |
| 1 to 10 µM | 1 to 10 µM | O=C1OC(CO)CN1c1ccc(OCc2c(Cl)cccc2Cl)c(F)c1 (stereo not shown) | C′ (C′ = <5X) | B′ (B′ = ≥5X to <10X) |
| 1 to 10 µM | 1 to 10 µM | C=C1NC(=O)N(c2ccc(OCc3c(Cl)cccc3Cl)cn2)C1=O | B′ (B′ = ≥5X to <10X) | B′ (B′ = ≥5X to <10X) |
| > 10 µM | > 10 µM | CC(C)C1NC(=O)N(c2ncc(OCc3c(Cl)cccc3Cl)cn2)C1=O (stereo not shown) | B′ (B′ = ≥5X to <10X) | A′ (A′ = ≥10X) |
| > 10 µM | 1 to 10 µM | O=C1NC2(CCCC2)C(=O)N1c1ncc(OCc2c(Cl)cccc2Cl)cn1 | A′ (A′ = ≥10X) | A′ (A′ = ≥10X) |
| 1 to 10 µM | 1 to 10 µM | Cc1cccc(C(F)(F)F)c1COc1cnc(N2CC[S+]([O-])CC2)nc1 | A′ (A′ = ≥10X) | A′ (A′ = ≥10X) |
| < 1 µM | < 1 µM | Cc1cccc(C(F)(F)F)c1COc1cnc(N2CCN(C(N)=O)CC2)nc1 | A′ (A′ = ≥10X) | A′ (A′ = ≥10X) |
| 1 to 10 µM | 1 to 10 µM | O=C1CN(c2ncc(OCc3c(Cl)cccc3Cl)cn2)CC(CO)N1 (stereo not shown) | A′ (A′ = ≥10X) | A′ (A′ = ≥10X) |
| < 1 µM | < 1 µM | CN(C)C(=O)N1CCN(c2ncc(OCc3c(Cl)cccc3Cl)cn2)CC1 | A′ (A′ = ≥10X) | B′ (B′ = ≥5X to <10X) |
| < 1 µM | < 1 µM | NC(=O)N1CCN(c2ncc(OCc3c(Cl)cccc3Cl)cn2)CC1CO (stereo not shown) | A′ (A′ = ≥10X) | A′ (A′ = ≥10X) |
| < 1 µM | < 1 µM | CC1CN(c2ncc(OCc3c(Cl)cccc3Cl)cn2)CCN1C(N)=O (stereo not shown) | A′ (A′ = ≥10X) | A′ (A′ = ≥10X) |
| < 1 µM | < 1 µM | CNC(=O)N1CCN(c2ncc(OCc3c(Cl)cccc3Cl)cn2)CC1 | A′ (A′ = ≥10X) | A′ (A′ = ≥10X) |
| 1 to 10 µM | 1 to 10 µM | Cc1cccc(C(F)(F)F)c1COc1ccc(N2CC(CO)OC2=O)cc1 (stereo not shown) | A′ (A′ = ≥10X) | A′ (A′ = ≥10X) |
| 1 to 10 µM | 1 to 10 µM | Cc1cccc(C(F)(F)F)c1COc1cnc(N2C(=O)NC(C)(C)C2=O)nc1 | A′ (A′ = ≥10X) | A′ (A′ = ≥10X) |
| < 1 µM | < 1 µM | Cc1cccc(C(F)(F)F)c1COc1cnc(N2CCN3CCOCC3C2)nc1 (stereo not shown) | A′ (A′ = ≥10X) | A′ (A′ = ≥10X) |

| EC50 [1] | EC50 [2] | Structure (SMILES) | CFTR R1162X ACTIVITY Fold 10 μM G-418 [1] | CFTR G542X ACTIVITY Fold 10 μM G-418 [2] |
| --- | --- | --- | --- | --- |
| 1 to 10 µM | < 1 µM | CC(=O)NCC1CN(c2ncc(OCc3c(Cl)cccc3Cl)cn2)CCO1 (stereo not shown) | A′ (A′ = ≥10X) | A′ (A′ = ≥10X) |
| 1 to 10 µM | < 1 µM | OCc1ncn(-c2ccc(OCc3c(Cl)cccc3C(F)(F)F)cc2)n1 | A′ (A′ = ≥10X) | A′ (A′ = ≥10X) |
| < 1 µM | < 1 µM | CCc1cccc(C(F)(F)F)c1COc1cnc(-n2cnc(CO)c2)nc1 | A′ (A′ = ≥10X) | A′ (A′ = ≥10X) |
| < 1 µM | < 1 µM | CCc1cccc(C(F)(F)F)c1COc1cnc(-n2ccc(CO)n2)nc1 | A′ (A′ = ≥10X) | A′ (A′ = ≥10X) |
| > 10 µM | > 10 µM | CC(=O)N[C@H](CO)C(=O)Nc1ccc(OCc2c(Cl)cccc2Cl)cn1 | C′ (C′ = <5X) | C′ (C′ = <5X) |
| 1 to 10 µM | 1 to 10 µM | NC(=O)N1C[C@@H]2CN(c3ncc(OCc4c(Cl)cccc4Cl)cn3)C[C@@H]2C1 | B′ (B′ = ≥5X to <10X) | A′ (A′ = ≥10X) |
| 1 to 10 µM | 1 to 10 µM | CC1(C)CN(c2ncc(OCc3c(Cl)cccc3Cl)cn2)CC(CO)O1 (stereo not shown) | A′ (A′ = ≥10X) | A′ (A′ = ≥10X) |
| 1 to 10 µM | 1 to 10 µM | O=C1N[C@@H](CO)CN1c1ccc(OCc2c(Cl)cccc2Cl)cn1 | A′ (A′ = ≥10X) | A′ (A′ = ≥10X) |
| < 1 µM | < 1 µM | O=C1N[C@H](CO)CN1c1ccc(OCc2c(Cl)cccc2Cl)cn1 | A′ (A′ = ≥10X) | A′ (A′ = ≥10X) |
| < 1 µM | < 1 µM | Cc1cccc(C(F)(F)F)c1COc1ccc(N2C[C@@H](CO)NC2=O)nc1 | A′ (A′ = ≥10X) | A′ (A′ = ≥10X) |
| > 10 µM | > 10 µM | O=C1N[C@H](CO)C(=O)N1c1ccc(OCc2c(Cl)cccc2Cl)cn1 | B′ (B′ = ≥5X to <10X) | A′ (A′ = ≥10X) |
| < 1 µM | < 1 µM | OC[C@H]1CN(c2ncc(OCc3c(Cl)cccc3C(F)(F)F)cn2)CCO1 | A′ (A′ = ≥10X) | A′ (A′ = ≥10X) |
| < 1 µM | < 1 µM | Cc1cccc(C(F)(F)F)c1COc1cnc(N2CCO[C@@H](CO)C2)nc1 | A′ (A′ = ≥10X) | A′ (A′ = ≥10X) |
| < 1 µM | < 1 µM | OC[C@@H]1CN(c2ncc(OCc3c(Cl)cccc3C(F)(F)F)cn2)CCO1 | A′ (A′ = ≥10X) | A′ (A′ = ≥10X) |
| < 1 µM | < 1 µM | Cc1cccc(C(F)(F)F)c1COc1cnc(N2CCO[C@H](CO)C2)nc1 | A′ (A′ = ≥10X) | A′ (A′ = ≥10X) |
| 1 to 10 µM | < 1 µM | COC(=O)c1ncn(-c2ccc(OCc3c(C)cccc3C(F)(F)F)cc2)n1 | A′ (A′ = ≥10X) | A′ (A′ = ≥10X) |
| > 10 µM | > 10 µM | COC(=O)C1CN(c2ncc(OCc3c(Cl)cccc3Cl)cn2)CC(=O)N1 (stereo not shown) | B′ (B′ = ≥5X to <10X) | A′ (A′ = ≥10X) |
| 1 to 10 µM | 1 to 10 µM | Clc1cccc(Cl)c1COc1cnc(N2C[C@H]3COC[C@H]3C2)nc1 | A′ (A′ = ≥10X) | A′ (A′ = ≥10X) |
